# Tests used:
# [1] = system: AXL association with MET and HER2; assay: RTK cross-linking and bead-based co-I.P.; type: cell-based; details: 2 h; MDAMB231
# Procedure: MDA-MB231 cells were plated at 90% confluency on three 10-cm plates for each condition, serum starved for 4 h the following day, and treated with inhibitor in serum-free media for 2 h. Cells were then cross-linked with 1 mM EGS for 30 min at 4° C., lysed. Receptor cross-linking was measured using a modified MET and HER2 Luminex Bioplex assay, as previously described (Meyer, A. S., Miller, M. A., Gertler, F. B., and Lauffenburger, D. A. (2013). The receptor AXL diversifies EGFR signaling and limits the response to EGFR-targeted inhibitors in triple-negative breast cancer cells. Sci Signal 6, ra66).
# [2] = system: sheddase substrates; assay: Supernatant accumulation of sheddase substrates (ELISA, bead-based immunoassay); details: 24 h; multiple cancer types
# Procedure: The following inhibitors were used in FIG. 1H, at the following concentrations: metalloproteinase inhibitor BB94 (10 μM; Tocris Bioscience), p38 inhibitor SB203580 (20 μM; Selleck Chem), MEK1/2 inhibitor PD0325901 (10 μM; LC Labs), Met/AXL inhibitor XL-880 (5 μM; Selleck Chem), MEK1/2 inhibitor U0126 (10 μM; Selleck Chem), MEK1/2 inhibitor AZD6244 (10 μM; Selleck Chem), Aurora kinase inhibitor VX-680 (10 μM; Selleck Chem), PI3K inhibitor LY294002 (10 μM; Selleck Chem), JNK1/2 inhibitor JNK-IN-8 (3 μM; courtesy Nathaniel Gray, Harvard Medical School), JNK inhibitor SP600125 (10 μM; LC Labs), EGFR inhibitor gefitinib (1 μM; LC Labs), EGFR inhibitor erlotinib (1 μM; LC Labs), JNK inhibitor TCS-6o (1 μM; Tocris Bioscience), Abl inhibitor imatinib (1 μM; LC Labs), EGFR/HER2 inhibitor lapatinib (1 μM; LC Labs), AXL inhibitor R428 (3 μM; Selleck Chem), Alk5 inhibitor ALX-270-448 (5 μM; Enzo life sciences), AXL/MET inhibitor MP470 (5 μM; Selleck Chem), myosin light chain kinase inhibitor ML7 (1 μM; Sigma), and glycogen synthase kinase 3b inhibitor SB216763 (10 μM; Selleck Chem) Inhibitor concentrations were chosen based roughly on exceeding previously published Ki and IC50 values. The ADAM-10 inhibitor pro-ADAM-10 was from Biozyme, Inc. (St. Joseph, Mo.) and was used at 4 μM.
# AXL, MET, TNFR1, and EGF-ligand supernatant measurements were performed using duo-set ELISA kits (R&D Systems, Minneapolis, Minn.). Total RTK measurements for HER2 and HER4 were performed using bead-based immunoassays (EMD Millipore, Billerica, Mass.).
# For quantification of supernatant protein levels, cell supernatant was collected at the indicated time-point, spun for 5 min at 300 g, and frozen at −80° C. for future use. Supernatants were routinely normalized to cell count, determined via trypsinization and ViCell (Beckman Coulter, Brea, Calif.), and volumes were kept consistent across treatments.
# As shown in FIG. 3A-3B, MDA-MB231 cells were treated with siRNA as described above and were seeded in 96-well plates at equal 90% confluency. Media was changed at 48 h post-transfection, and 24 h later supernatant was collected and cells were analyzed by live-cell immunostaining. For proADAM10 treatment, cells were seeded in 96-well plates at 90% confluency, treated with inhibitor or buffer control the following day, and supernatant was collected 24 h later.
# [3] = system: mitotic index; assay: Cell cycle analysis (mitotic index by FACS); type: cell-based
# Procedure: Cells were trypsinized, rinsed in 4° C. PBS, fixed in 70% 4° C. ethanol overnight, rinsed, and permeabilized in 0.1% Triton-X-100. Cells were then blocked for 1 h in PBS+3% FBS, incubated with anti-phospho-Histone H3 (pSer^10) for 1 h, rinsed, incubated with Alexa647-conjugated 2° Ab, and again rinsed. Lastly, cells were finally incubated at 37° C. for 1 h with 40 μg/ml propidium iodide and 100 μg/ml RNaseA, and again rinsed. Mitotic index was calculated by interpreting DNA-content histograms as described previously (Watson, J. V., Chambers, S. H. & Smith, P. J. A pragmatic approach to the analysis of DNA histograms with a definable G1 peak. Cytometry 8, 1-8 (1987)) in Matlab (Mathworks, Natick, Mass.) and gating for G2/M phase cells with high p-Histone-H3 staining.
# [4] = system: AXL pY; assay: Short term p-AXL up-regulation (bead-based immunoassay); type: cell-based; details: 2 h; MDAMB231
# Description: pTyr-RTK measurements used bead-based immunocapture with a pan-pTyr detection antibody (EMD Millipore, Billerica, Mass.). Unless otherwise stated, immunoassays followed manufacturer protocols. Bead-based immunoassays were routinely normalized according to the micro BCA protein assay (Pierce) or cell count (ViCell). ADAM17 (pThr^735) and ADAM10 western blot Abs were from Sigma. Anti-phospho Histone H3 (Ser10) for measuring mitotic index was from EMD Millipore, (Billerica, Mass.). GAPDH (glyceraldehyde-3-phosphate dehydrogenase) and α-actinin were used for Western blotting and purchased from Cell Signaling Technology (Danvers, Mass.). APP Ab was from Abcam (Cambridge, Mass.). Live-cell immunostaining was performed using R&D Systems (Minneapolis, Minn.) Abs. SiRNAs, including non-targeting control siRNA, were packaged as SMARTpool ON-TARGETplus and used with DharmaFECT4 (Thermo Scientific, Tewksbury, Mass.). For ADAM10/17 western blots, lysis was performed with 50 mM tris-HCl (pH 7.5), 10% glycerol, 150 mM NaCl, and 1% NP-40, with complete protease (Roche, Nutley, N.J.) and phosphatase (Boston BioProducts, Ashland, Mass.) inhibitors added immediately before use.
# [5] = system: OVCA-429 ovarian cancer cells; assay: Loewe synergy of MEKi/AXLi cell count, with or without BB94; type: cell-based; details: 72 h; addition of 10 uM BB94
# Procedure: (§1) Drugs were purchased from Selleck Chem (Houston, Tex.) and LC Labs (Woburn, Mass.). Cells were grown as described by manufacturers' guidelines. OVCA-429 were grown in RPMI+10% FBS. To calculate Loewe synergy, a computational model was used (Greco, W. R., et al., Pharmacol Rev., 47(2):331-85 (1995)) and the synergy term a was computationally inferred using Matlab (Mathworks; Natick, Mass.). Statistical significance was determined by leave-one-out jackknife error estimation (Efron, B. and Gong, G., Amer Stat.; 37(1):36-48 (1983)). For both MDAMB-231 and OVCA-429 synergy calculations, the modeling was fit to data from treatment at the MEKi concentrations of 7 μM, 2 μM, 0.7 μM, and 0.02 μM and R428 concentrations of 1.5 μM, 0.75 μM, 0.38 μM, and 0.19 μM. For cell growth assays, 5000 cells were plated per well in a 96-well plate, treated with drugs the following day, and counted at 72 h according to either a rezasurin assay (PrestoBlue; Life Technologies, Grand Island, N.Y.) using manufacturer's guidelines, or by flow cytometry following trypsinization and immediate analysis on an LSR-II (BD Biosciences, San Jose, Calif.).
# [6] = system: MDAMB-231; assay: as above; type: cell-based; details: 72 h; addition of 10 uM BB94
# Procedure: as §1
# [7] = system: p-JNK; assay: Short term BB94-elicited downstream phosphosignaling (bead-based immunoassay); type: cell-based; details: 2 h; MDAMB231
structure (smiles),measurement,setting,value
CNC(=O)[C@H](Cc1ccccc1)NC(=O)[C@H](CC(C)C)[C@H](CSc1cccs1)C(=O)NO [BB94],AXL association with MET and HER2,[1],increases
same,supernatant RTK accumulation,[2],reduced supernatant RTK accumulation
same,mitotic index,[3],increases mitotic index
same,total AXL pY,[4],increases
same,Loewe synergy (interaction term α) of trametinib and R428,[5],reduced synergy
same,Loewe synergy (interaction term α) of PD325901 and R428,[6],reduced synergy
same,phosphosignaling,[7],increases phosphosignaling in an AXL-dependent manner
